In patent US20110098288A1, “SULFONAMIDES AS ZAP-70 INHIBITORS” (priority 2008, published 2011):

Target: T1, ZAP-70 (Homo sapiens, UniProt P43403)
T1 construct: endogenous in cells; host or cells: cell lysate
T1 sequence (P43403 1-619): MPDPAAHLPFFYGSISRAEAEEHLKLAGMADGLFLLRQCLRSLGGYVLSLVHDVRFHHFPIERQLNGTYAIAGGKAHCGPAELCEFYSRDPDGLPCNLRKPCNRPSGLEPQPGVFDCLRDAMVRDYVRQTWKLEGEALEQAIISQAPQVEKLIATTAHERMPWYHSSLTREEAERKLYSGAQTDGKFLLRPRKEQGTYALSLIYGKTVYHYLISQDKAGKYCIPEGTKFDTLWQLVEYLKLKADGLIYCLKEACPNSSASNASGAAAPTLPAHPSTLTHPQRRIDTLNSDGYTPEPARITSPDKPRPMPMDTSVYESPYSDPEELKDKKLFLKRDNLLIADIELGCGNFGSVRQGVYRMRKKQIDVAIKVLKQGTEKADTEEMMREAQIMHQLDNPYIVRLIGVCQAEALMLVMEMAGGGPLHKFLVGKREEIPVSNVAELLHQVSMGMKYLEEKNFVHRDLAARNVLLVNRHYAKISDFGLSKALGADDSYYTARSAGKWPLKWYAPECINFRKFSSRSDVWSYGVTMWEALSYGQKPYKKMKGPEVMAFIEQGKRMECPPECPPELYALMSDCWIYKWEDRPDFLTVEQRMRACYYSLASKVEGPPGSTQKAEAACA
Experiment: ZAP-70 kinobeads assay
Type: binding
Conditions: competition with immobilized aminopyrido-pyrimidine ligand 24 in cell lysate; ZAP-70 detected by dot blot
Experimental: The compounds of the present invention as described in the previous examples can be tested in the ZAP-70 kinobeads assay as described (EP-A 1862802 and WO-A 2007/137867). Briefly, test compounds (at various concentrations) and the affinity matrix with the immobilized aminopyrido-pyrimidine ligand 24 are added to cell lysate aliquots and allowed to bind to the proteins in the lysate sample. After the incubation time the beads with captured proteins are separated from the lysate. Bound proteins are then eluted and the presence ZAP-70 is detected and quantified using a specific antibody in a dot blot procedure and the Odyssey infrared detection system. Conventionally, ZAP-70 kinase activity can be measured using purified or recombinant enzyme in a solution-based assay with protein or peptide substrates (Isakov et al., 1996, J. Biol. Chem. 271(26), 15753-15761; Moffat et al., 1999, Bioorg. Med. Chem. Letters 9, 3351-3356).

Row | Compound | IC50
1 | CS(=O)(=O)Nc1ccccc1Nc1nc(Nc2cccc(F)c2)ncc1F [Example 6, N-(2-(5-fluoro-2-(3-fluorophenylamino)pyrimidin-4-ylamino)phenyl)methanesulfonamide] | 1000 to 10000 nM
2 | COc1cc(Nc2ncc(F)c(Nc3ccccc3NS(C)(=O)=O)n2)ccc1Cl [Example 10, N-(2-(2-(4-chloro-3-methoxyphenylamino)-5-fluoropyrimidin-4-ylamino)phenyl)methanesulfonamide] | 1000 to 10000 nM
3 | CS(=O)(=O)Nc1ccccc1Nc1nc(Nc2cccc(Cl)c2)ncc1F [Example 12, N-(2-(2-(3-chlorophenylamino)-5-fluoropyrimidin-4-ylamino)phenyl)methanesulfonamide] | 1000 to 10000 nM
4 | CCOc1cccc(Nc2ncc(F)c(Nc3ccccc3NS(C)(=O)=O)n2)c1 [Example 13, N-(2-(2-(3-ethoxyphenylamino)-5-fluoropyrimidin-4-ylamino)phenyl)methanesulfonamide] | 1000 to 10000 nM
5 | CSc1cccc(Nc2ncc(F)c(Nc3ccccc3NS(C)(=O)=O)n2)c1 [Example 15, N-(2-(5-fluoro-2-(3-(methylthio)phenylamino)pyrimidin-4-ylamino)phenyl)methanesulfonamide] | 1000 to 10000 nM
6 | CS(=O)(=O)Nc1ccccc1Nc1nc(Nc2cccc(-n3cccn3)c2)ncc1F [Example 17, N-(2-(2-(3-(1H-pyrazol-1-yl)phenylamino)-5-fluoropyrimidin-4-ylamino)phenyl)methanesulfonamide] | 1000 to 10000 nM
7 | COc1ccc(Nc2ncc(F)c(Nc3ccccc3NS(C)(=O)=O)n2)cc1Cl [Example 19, N-(2-(2-(3-chloro-4-methoxyphenylamino)-5-fluoropyrimidin-4-ylamino)phenyl)methanesulfonamide] | 1000 to 10000 nM
8 | CN1C(=O)COc2ccc(Nc3ncc(F)c(Nc4ccccc4NS(C)(=O)=O)n3)cc21 [Example 20, N-(2-(5-fluoro-2-(4-methyl-3-oxo-3,4-dihydro-2H-benzo[b][1,4]oxazin-6-ylamino)pyrimidin-4-ylamino)phenyl)methanesulfonamide] | 1000 to 10000 nM
9 | CS(=O)(=O)Nc1ccccc1Nc1nc(Nc2ccc3c(c2)OCC(=O)N3)ncc1F [Example 23, N-(2-(5-fluoro-2-(3-oxo-3,4-dihydro-2H-benzo[b][1,4]oxazin-7-ylamino)pyrimidin-4-ylamino)phenyl)methanesulfonamide] | 100 to 1000 nM
10 | Cc1nnc(-c2cccc(Nc3ncc(F)c(Nc4ccccc4NS(C)(=O)=O)n3)c2)[nH]1 [Example 24, N-(2-(5-fluoro-2-(3-(5-methyl-4H-1,2,4-triazol-3-yl)phenylamino)pyrimidin-4-ylamino)phenyl)methanesulfonamide] | 1000 to 10000 nM

Now from value to compound:

Row | IC50 | Compound
11 | 1000 to 10000 nM | CS(=O)(=O)Nc1ccccc1Nc1nc(Nc2cccc(OC(F)F)c2)ncc1F [Example 26, N-(2-(2-(3-(difluoromethoxy)phenylamino)-5-fluoropyrimidin-4-ylamino)phenyl)methanesulfonamide]
12 | 1000 to 10000 nM | CS(=O)(=O)Nc1ccccc1Nc1nc(Nc2ccc(OC(F)F)cc2)ncc1F [Example 27, N-(2-(2-(4-(difluoromethoxy)phenylamino)-5-fluoropyrimidin-4-ylamino)phenyl)methanesulfonamide]
13 | 100 to 1000 nM | CS(=O)(=O)Nc1ccccc1Nc1nc(Nc2ccc3nn[nH]c3c2)ncc1F [Example 33, N-(2-(2-(1H-benzo[d][1,2,3]-triazol-6-ylamino)-5-fluoropyrimidin-4-ylamino)phenyl)methanesulfonamide]
14 | 1000 to 10000 nM | CS(=O)(=O)Nc1ccccc1Nc1nc(Nc2ccccc2)ncc1F [Example 34, N-(2-(5-fluoro-2-(phenylamino)pyrimidin-4-ylamino)phenyl)methanesulfonamide]
15 | 1000 to 10000 nM | COc1cc(Nc2ncc(F)c(Nc3ccccc3NS(=O)(=O)c3ccccc3)n2)cc(OC)c1OC [Example 47, N-(2-(5-fluoro-2-(3,4,5-trimethoxyphenylamino)pyrimidin-4-ylamino)phenyl)benzenesulfonamide]
